Common to all, as to design: species or system Egg
The nature of series [1]: Inhibition of cell division of fertilized eggs of Strongylocentrotus intermedius at 2.9 X 10 ' -5 M. Conditions: fertilized sea urchin eggs.
Series [2] in a line: Inhibition of cell division of fertilized eggs of Strongylocentrotus intermedius.
Series [3] can be described thus: Inhibition of cell division of fertilized eggs of Strongylocentrotus intermedius at 7 X 10 ' -5 M. The following applies: fertilized sea urchin eggs.

Here are results for four compounds from ChEMBL document CHEMBL1155728, “New steroid glycosides from the starfish Asterias rathbuni” (J Nat Prod, 2001).

As usually defined, the inhibition is the drop in the measured response relative to a control, in per cent. Low values mean a response near the control, high ones a response far below the control. `CC(C)=CC(=O)C[C@@H](C)[C@H]1CC[C@H]2[C@@H]3C[C@H](O)[C@H]4C[C@@H](OS(=O)(=O)O)CC[C@]4(C)C3=CC[C@]12C` gave an inhibition at 29 µM in series [1] of 100%.
Turning to `CC(C)[C@H](CC[C@@H](C)[C@H]1C[C@H](OS(=O)(=O)[O-])[C@H]2[C@@H]3C[C@H](O)[C@H]4C[C@@H](O)CC[C@]4(C)[C@H]3CC[C@@]21C)O[C@@H]1OC[C@@H](O)[C@H](O)[C@H]1O.[Na+]` [AMURENSOSIDE A], in series [2], the IC100 is recorded as 1.9 ×10⁻⁴ M.
As for `CC(C)[C@H](CC[C@@H](C)[C@H]1C[C@@H](O)[C@H]2[C@@H]3C[C@H](O)[C@H]4C[C@@H](O)CC[C@]4(C)[C@H]3CC[C@@]21C)O[C@@H]1OC[C@@H](O)[C@H](O)[C@H]1O` [RATHBUNIOSIDE R1], in series [3], the inhibition at 70 µM is 100%.
In series [2], `CC(C)[C@H](CC[C@@H](C)[C@H]1C[C@H](O)[C@H]2[C@@H]3C[C@@H](O)[C@@]4(O)C[C@@H](O)CC[C@]4(C)[C@H]3CC[C@@]21C)O[C@@H]1OC[C@@H](O)[C@H](O)[C@H]1O` [RATHBUNIOSIDE R2] had an IC100 of 1.7 ×10⁻⁴ M.
